In patent EP0610519B1, “ANTI-HIV DRUG” (priority 1992, dated 1994):
Where two headings read alike, the source gives them in different places.

Legend:
[1] = test system: HIV (type IIIB); assay: inhibition of budding of HIV from infected H-9 cells (reverse transcriptase activity per unit culture medium as index); type: cell-based; settings: H-9 cells infected with HIV (type IIIB), 15 minutes treatment, then 360 minutes culture
Description: (§1) Human lymphocyte-derived H-9 cells, infected with HIV (type IIIB), were cultured in an RPMI-1640 medium (product of Biocell Laboratories) containing wortmannin and 10% fetal bovine serum (FBS) at 37°C for 15 minutes in a CO2 incubator. The H-9 cells thus obtained were washed with an RPMI-1640 medium, and then cultured in another RPMI-1640 medium containing 10% FBS at 37°C for 360 minutes in a CO2 incubator. The reverse transcriptase activity per unit culture medium was used as an index to determine the inhibitory effect of wortmannin on the budding of HIV.
(§2) The same test as mentioned above was repeated using MS-444 instead of wortmannin.

[2] = rat, in vivo
[3] = test system: Human lymphocyte-derived H-9 cells; assay: host cell growth in the HIV budding test; settings: concentration of 100 µM
Description: as §1, §2

Compound | Budding of HIV (%) ([1]; 10 µM test compound) | Budding of HIV (%) ([1]; 100 µM test compound) | Budding of HIV (%) ([1]; 1000 µM test compound) | acute toxicity, mortality ([2]; ip, 100 mg/kg) | acute toxicity, mortality ([2]; po, 300 mg/kg) | Budding of HIV (%) ([1]; 0.1 µM test compound) | Budding of HIV (%) ([1]; 1.0 µM test compound) | Host cell growth [3]
Cc1occ2c1C(=O)c1c(O)ccc(O)c1C2 [MS-444] | 95% | 82% | 20% | no rats died | no rats died | – | – | –
COC[C@H]1OC(=O)c2coc3c2[C@@]1(C)C1=C(C3=O)[C@@H]2CCC(=O)[C@@]2(C)C[C@H]1OC(C)=O [Wortmannin] | 39% | – | – | – | – | 67% | 49% | not influenced
